The numbers were not newly measured in US6365131B1, “Pharmaceutical dental formulation for topical application of metronidazole benzoate, chlorhexidine gluconate and local anesthetic” (priority 1997, dated 2002), which cites them from elsewhere.

Each structure is given as a SMILES string.

In the case of `CCOC(=O)c1ccc(N)cc1` [Benzocaine, ethyl ester of p-Aminobenzoic acid], the “Time to peak effect” value (after the application to skin or mucosal surface) is on record as not above 1 min.

Consider `CCN(CC)CC(=O)Nc1c(C)cccc1C` [Lidocaine], for which, under “depending on the site of administration”, the Onset of anesthesia entry was “within a few minutes”. In addition, the Duration of action result (in words) is on record as “intermediate duration of action”.
